Values after ≈ are worked out from the molar mass of the structure shown.
Columns and labels:
Enterococcus faecalis = test: Antibacterial activity against Streptococcus faecalis NRRL B14617 by micro-broth dilution method; format: functional
Staphylococcus aureus = test: Antibacterial activity against Staphylococcus aureus NRRL B767 by micro-broth dilution method; format: functional
Escherichia coli = test: Antibacterial activity against Escherichia coli NRRL B3704 by microbroth dilution method; format: functional
Bacillus cereus = test: Antibacterial activity against Bacillus cereus NRRL B3711 by micro-broth dilution method; format: functional
Candida albicans = test: Antifungal activity against Candida albicans by micro-broth dilution method; format: functional
Aeromonas hydrophila = test: Antibacterial activity against Aeromonas hydrophila by micro-broth dilution method; format: functional
Salmonella typhimurium = test: Antibacterial activity against Salmonella Typhimurium NRRL B4420 by microbroth dilution method; format: functional, Salmonella enterica subsp. enterica serovar Typhimurium; conditions: Salmonella enterica
Nakaseomyces glabratus = test: Antifungal activity against Candida glabrata by broth dilution antifungal susceptibility testing; format: functional

| SMILES | MIC (Enterococcus faecalis) | MIC (Staphylococcus aureus) | MIC (Escherichia coli) | MIC (Bacillus cereus) | MIC (Candida albicans) | MIC (Aeromonas hydrophila) | MIC (Salmonella typhimurium) | MIC (Nakaseomyces glabratus) |
| --- | --- | --- | --- | --- | --- | --- | --- | --- |
| COc1ccc(-c2csc(N3N=C(c4cccs4)CC3c3cccnc3)n2)cc1 (stereo not given) | 250 µg/mL (≈ 597 µM) | 250 µg/mL (≈ 597 µM) | 250 µg/mL (≈ 597 µM) | 250 µg/mL (≈ 597 µM) | 125 µg/mL (≈ 299 µM) | 125 µg/mL (≈ 299 µM) | 125 µg/mL (≈ 299 µM) | 125 µg/mL (≈ 299 µM) |
| c1ccc(-c2csc(N3N=C(c4cccs4)CC3c3ccccn3)n2)cc1 (stereo not given) | 250 µg/mL (≈ 643 µM) | 250 µg/mL (≈ 643 µM) | 125 µg/mL (≈ 322 µM) | 250 µg/mL (≈ 643 µM) | 62.5 µg/mL (≈ 161 µM) | 62.5 µg/mL (≈ 161 µM) | 125 µg/mL (≈ 322 µM) | 62.5 µg/mL (≈ 161 µM) |
| O=[N+]([O-])c1ccc(-c2csc(N3N=C(c4cccs4)CC3c3ccccn3)n2)cc1 (stereo not given) | 500 µg/mL (≈ 1150 µM) | 250 µg/mL (≈ 577 µM) | 125 µg/mL (≈ 288 µM) | 500 µg/mL (≈ 1150 µM) | 125 µg/mL (≈ 288 µM) | 125 µg/mL (≈ 288 µM) | 250 µg/mL (≈ 577 µM) | 125 µg/mL (≈ 288 µM) |
| COc1ccc(-c2csc(N3N=C(c4cccs4)CC3c3ccccn3)n2)cc1 (stereo not given) | 250 µg/mL (≈ 597 µM) | 125 µg/mL (≈ 299 µM) | 125 µg/mL (≈ 299 µM) | 250 µg/mL (≈ 597 µM) | 62.5 µg/mL (≈ 149 µM) | 62.5 µg/mL (≈ 149 µM) | 125 µg/mL (≈ 299 µM) | 62.5 µg/mL (≈ 149 µM) |
| Cc1ccc(-c2csc(N3N=C(c4cccs4)CC3c3ccccn3)n2)cc1 (stereo not given) | 250 µg/mL (≈ 621 µM) | 250 µg/mL (≈ 621 µM) | 125 µg/mL (≈ 311 µM) | 250 µg/mL (≈ 621 µM) | 62.5 µg/mL (≈ 155 µM) | 62.5 µg/mL (≈ 155 µM) | 125 µg/mL (≈ 311 µM) | 62.5 µg/mL (≈ 155 µM) |
| c1ccc(-c2csc(N3N=C(c4cccs4)CC3c3cccnc3)n2)cc1 (stereo not given) | 250 µg/mL (≈ 643 µM) | 125 µg/mL (≈ 322 µM) | 250 µg/mL (≈ 643 µM) | 250 µg/mL (≈ 643 µM) | 250 µg/mL (≈ 643 µM) | 250 µg/mL (≈ 643 µM) | 250 µg/mL (≈ 643 µM) | 250 µg/mL (≈ 643 µM) |
| COc1ccc(-c2csc(N3N=C(c4cccs4)CC3c3ccncc3)n2)cc1 (stereo not given) | 250 µg/mL (≈ 597 µM) | 125 µg/mL (≈ 299 µM) | 125 µg/mL (≈ 299 µM) | 62.5 µg/mL (≈ 149 µM) | 62.5 µg/mL (≈ 149 µM) | 125 µg/mL (≈ 299 µM) | 125 µg/mL (≈ 299 µM) | 62.5 µg/mL (≈ 149 µM) |
| O=[N+]([O-])c1ccc(-c2csc(N3N=C(c4cccs4)CC3c3ccncc3)n2)cc1 (stereo not given) | 250 µg/mL (≈ 577 µM) | 125 µg/mL (≈ 288 µM) | 125 µg/mL (≈ 288 µM) | 62.5 µg/mL (≈ 144 µM) | 125 µg/mL (≈ 288 µM) | 125 µg/mL (≈ 288 µM) | 125 µg/mL (≈ 288 µM) | 125 µg/mL (≈ 288 µM) |
| Cc1ccc(-c2csc(N3N=C(c4cccs4)CC3c3cccnc3)n2)cc1 (stereo not given) | 250 µg/mL (≈ 621 µM) | 125 µg/mL (≈ 311 µM) | 250 µg/mL (≈ 621 µM) | 250 µg/mL (≈ 621 µM) | 125 µg/mL (≈ 311 µM) | 250 µg/mL (≈ 621 µM) | 125 µg/mL (≈ 311 µM) | 125 µg/mL (≈ 311 µM) |
| Cc1ccc(-c2csc(N3N=C(c4cccs4)CC3c3ccncc3)n2)cc1 (stereo not given) | 250 µg/mL (≈ 621 µM) | 125 µg/mL (≈ 311 µM) | 250 µg/mL (≈ 621 µM) | 62.5 µg/mL (≈ 155 µM) | 125 µg/mL (≈ 311 µM) | 125 µg/mL (≈ 311 µM) | 125 µg/mL (≈ 311 µM) | 125 µg/mL (≈ 311 µM) |
| Clc1ccc(-c2csc(N3N=C(c4cccs4)CC3c3ccncc3)n2)cc1 (stereo not given) | 62.5 µg/mL (≈ 148 µM) | 62.5 µg/mL (≈ 148 µM) | 125 µg/mL (≈ 296 µM) | 62.5 µg/mL (≈ 148 µM) | 125 µg/mL (≈ 296 µM) | 62.5 µg/mL (≈ 148 µM) | 62.5 µg/mL (≈ 148 µM) | 62.5 µg/mL (≈ 148 µM) |
| Clc1ccc(-c2csc(N3N=C(c4cccs4)CC3c3ccccn3)n2)cc1 (stereo not given) | 250 µg/mL (≈ 591 µM) | 250 µg/mL (≈ 591 µM) | 125 µg/mL (≈ 296 µM) | 250 µg/mL (≈ 591 µM) | 125 µg/mL (≈ 296 µM) | 125 µg/mL (≈ 296 µM) | 250 µg/mL (≈ 591 µM) | 125 µg/mL (≈ 296 µM) |
| Clc1ccc(-c2csc(N3N=C(c4cccs4)CC3c3cccnc3)n2)cc1 (stereo not given) | 125 µg/mL (≈ 296 µM) | 250 µg/mL (≈ 591 µM) | 250 µg/mL (≈ 591 µM) | 125 µg/mL (≈ 296 µM) | 250 µg/mL (≈ 591 µM) | 250 µg/mL (≈ 591 µM) | 250 µg/mL (≈ 591 µM) | 250 µg/mL (≈ 591 µM) |
| O=[N+]([O-])c1ccc(-c2csc(N3N=C(c4cccs4)CC3c3cccnc3)n2)cc1 (stereo not given) | 125 µg/mL (≈ 288 µM) | 31.2 µg/mL (≈ 72.1 µM) | 250 µg/mL (≈ 577 µM) | 125 µg/mL (≈ 288 µM) | 62.5 µg/mL (≈ 144 µM) | 31.2 µg/mL (≈ 72.1 µM) | 125 µg/mL (≈ 288 µM) | 62.5 µg/mL (≈ 144 µM) |
| c1ccc(-c2csc(N3N=C(c4cccs4)CC3c3ccncc3)n2)cc1 (stereo not given) | 31.2 µg/mL (≈ 80.4 µM) | 15.6 µg/mL (≈ 40.2 µM) | 250 µg/mL (≈ 643 µM) | 31.2 µg/mL (≈ 80.4 µM) | 250 µg/mL (≈ 643 µM) | 31.2 µg/mL (≈ 80.4 µM) | 62.5 µg/mL (≈ 161 µM) | 250 µg/mL (≈ 643 µM) |

From ChEMBL document CHEMBL1143796, “Synthesis and antimicrobial activity of 1-(4-aryl-2-thiazolyl)-3-(2-thienyl)-5-aryl-2-pyrazoline derivatives” (2007)
